One assay has as its system S6K1 K516 acetylation. Put plainly: S6K1 K516 acetylation in serum-stimulated NIH 3T3 cells treated with signal transduction inhibitors (Ac-K516 immunoblot). The class given is cell-based. To be noted: 50 nM Rapamycin, 20 μM LY294002 or 10 μM PD98059 30 minutes before serum stimulation, lysed after 1 hr. As to the method:
In this study, NIN3T3 cells were starved and stimulated with serum for various period of time. Total cell lysates were separated by SDS-PAGE and immunoblotted with acetyl-K516 antibodies. In FIG. 10B, the effect of various cell signalling inhibitors on K516 acetylation is shown. In this study, NIH3T3 cells were starved and treated with 50 nM Rapamycin (mTor inhibitor), 20 μM LY294002 (phosphatidylinositol 3′-kinase inhibitor), 10 μM PD98059 (MAP kinase inhibitor) or vehicle alone thirty minutes before stimulation with serum. Then, cells were stimulated with serum for one hour and lysed. The supernatants of total lysates were separated by SDS-PAGE and Western blotted with acetyl-K516 antibodies. […] The wtS6K and K516R mutants were transiently expressed in Hek293 cells. Immunoprecipitated recombinant S6Ks and total cell lysates were resolved by gel electrophoresis and immunoblotted with antibodies specific for EE tag, pT412 and actin.
Furthermore, the effect of signal transduction inhibitors on K516 acetylation was studied in NIH 3T3 cell. In this experiment, cells were serum starved and treated with rapamycin, LY and PD for 30 minutes before serum stimulation. Cells were lysed 1 hr hour after stimulation and the lysates separated by SDS-PAGE and immunoblotted with Ac-K516, pT412 antibodies.
For orientation: Immunoblotting shows a protein as a band on a membrane.

Another assay concerns S6 kinase. Put plainly: S6 kinase activation in C2C12 myoblasts by western blotting (pT412, phospho-rpS6), TSA dose course. The class given is cell-based. Conditions: 18 hours, doses of 500 nM TSA and above. As to the method: In FIG. 6A (upper panel), C2C12 myoblasts were treated for 18 hours with increasing concentrations of TSA or with the structurally unrelated HDAC inhibitor, sodium butyrate. Endogenous S6 kinase activity was assessed by western blotting against pT412 and against phosho-rpS6. In another experiment, C2C12 cells were treated with 1 μM TSA or control for the times shown and S6 kinase activity was measured by in vitro kinase assay using purified ribosomes as substrate (FIG. 6B). A representative autoradiograph is shown beneath the graph.
Since phosphorylation of multiple residues in S6 kinases has a potent effect on their kinase activity, it was interesting to see whether acetylation, an alternative post-translational modification, may also modulate the S6 kinase enzyme activity. Although kinase acetylation has not been described to date, there are examples of enzymes whose activity is regulated by p300-mediated acetylation, including Fen 1 (Hasan et al. (2001) Mol. Cell. 7, 1221-1231) and DNA polymerase beta (Hasan et al. (2002) Mol. Cell. 10, 1213-1222). In order to test whether S6 kinase acetylation may affect its kinase activity in vivo, C2C12 myoblasts were treated with a dose course of TSA. S6 kinase activation was analysed by western blotting with an antibody specific for phospho-threonine 412 and also with an antibody against the phosphorylated form of rpS6. […]

The target in assay [1] is T1, recombinant purified S6K1 (Homo sapiens, UniProt P23443).
T1 construct: made in house; host or cells: insect cells (baculovirus)
T1 sequence (P23443 whole entry): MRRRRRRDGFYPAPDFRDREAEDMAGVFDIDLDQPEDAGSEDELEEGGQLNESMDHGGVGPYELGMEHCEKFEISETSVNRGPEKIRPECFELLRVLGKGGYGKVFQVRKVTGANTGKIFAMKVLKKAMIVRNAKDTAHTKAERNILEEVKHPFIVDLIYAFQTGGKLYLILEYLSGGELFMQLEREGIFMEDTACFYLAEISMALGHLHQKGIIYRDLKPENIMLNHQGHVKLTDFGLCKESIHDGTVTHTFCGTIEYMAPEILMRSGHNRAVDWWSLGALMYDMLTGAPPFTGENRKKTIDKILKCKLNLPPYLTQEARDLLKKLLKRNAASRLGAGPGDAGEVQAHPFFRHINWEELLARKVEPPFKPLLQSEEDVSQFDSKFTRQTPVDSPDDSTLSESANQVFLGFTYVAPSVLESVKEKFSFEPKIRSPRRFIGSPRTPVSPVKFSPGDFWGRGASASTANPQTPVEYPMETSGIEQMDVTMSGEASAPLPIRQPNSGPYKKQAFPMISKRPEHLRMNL
Put plainly: In vitro kinase assay with recombinant purified S6K in presence or absence of deacetylase inhibitors. Format: biochemical. Conditions: presence or absence of TSA and nicotinamide. As to the method:
(§1) (A) The cell lines indicated (see text) were treated with TSA and nicotinamide for eight hours. Following lysis, proteins were resolved by SDS-PAGE and western blots were probed as labelled to evaluate S6K activation. (B) MKOC cells (see text) were treated as in (A) and analysed by western blotting. S6K1 was also immunoprecipitated from lysates and subjected to immune complex kinase assay.
Firstly, that TSA is not a specific inhibitor of HDAC activity but that it is also a direct S6K inhibitor in the classical sense. […] In order to test the former explanation, that TSA is a direct S6K inhibitor, in vitro kinase assays were conducted using recombinant purified S6K in the presence or absence of TSA and nicotinamide (FIG. 6C).

Another assay has as its system S6K. Put plainly: S6K activity after deacetylase inhibition in a range of cell types (western blot, immune complex kinase assay). Format: cell-based. How it is done: as §1
(§2) Histone deacetylase inhibitors downregulate S6K activity in a range of different cell types. In order to test the model that S6K acetylation may be playing a role in its de-activation, the effect of TSA on S6K activity was analysed in a number of cell types, some of which contain mutations in the pathways leading to S6K activation, thus affording a genetic analysis of this phenomenon. […] PC-3 is a PTEN-null prostate cancer cell line in which basal PKB and S6K activation is high due to deregulation of PI3K signalling. […] The MKOC cell line was derived from a renal tumour removed from a Tsc2^−/− mouse. Since these cells lack Tsc2, S6K activity is uncoupled from both PKB and the tuberous sclerosis complex heterodimer. […] It should be noted that, although the same trend (reduced S6K phosphorylation and activity following treatment with deacetylase inhibitors) is seen in all the cell lines tested, the magnitude of this effect does vary. […]

A further assay has as its system 4EBP1 (target of mTOR). Put plainly: Phospho-4EBP1 blotting in MKOC cells. Format: cell-based, mouse. To be noted: TSA treatment. As to the method: as §1, §2
For the next assay, the system named is S6 kinases. Put plainly: S6 kinase acetylation in HEK 293 cells cotransfected with EE-tagged S6 kinases and p300 (anti-acetylated lysine immunoblot). Format: cell-based. Conditions: HEK 293 cells with overexpressed p300; TSA 660 nM for 12 hours. How it is done: In FIG. 2A, recombinant S6 kinases were acetylated in vitro using the purified acetyltransferase domain of p300 or full length PCAF and ^14C-labelled acetyl CoA. Proteins were resolved by SDS-PAGE and acetylated proteins were analysed by phosphorimaging (Bio-rad). In FIG. 2B, recombinant S6K2 or GST were subject to in vitro acetylation reactions with p300 and 14C AcCoA. Recombinant PKB/Akt, PKCa, PDK1 and PI3K (p85a/p110a) were purified using baculovirus expression system. In vitro acetylation assay was carried out as previously described. In FIG. 2D, HEK 293 cells were transfected with S6 kinases in the absence or presence of Gal4-p300 as shown. Cells were treated with medium containing either solvent control or TSA to a final concentration of 660 nM for twelve hours prior to harvesting. Recombinant S6 kinases were immunoprecipitated using the EE-antibody and acetylated S6 kinase was detected by western blotting with polyclonal acetylated lysine antibodies (Upstate). The level of immunoprecipitated S6K1 and S6K2 was analysed by reprobing the membranes with specific antibodies. The expression of Gal4-p300 was tested in total lysates using anti-Gal4 antibodies.
In order to test whether S6 kinase proteins are subject to acetylation within cells, HEK 293 cells were cotransfected with EE-tagged S6 kinases and p300. […]

Consider 2 compounds from patent US20090181003A1, “Regulation of S6 Kinsase Protein Activity and Related Methods” (priority 2005, published 2009).

Regarding `COc1cccc(-c2cc(=O)c3ccccc3o2)c1N` [PD98059], the “acetylation of S6K1 at K516” value with S6K1 K516 acetylation is on record as “not affected”.

Regarding `CC(/C=C/C(=O)NO)=C\[C@@H](C)C(=O)c1ccc(N(C)C)cc1` [TSA, Trichostatin A], the “S6 kinase activation (phospho-threonine 412 and S6 protein phosphorylation)” value in the assay with S6 kinase is “potently inhibited”. Further, in assay [1], the “S6K activity in vitro (direct kinase inhibition)” value is “does not indicate that TSA inhibits S6K activity in vitro”. Further, the results for the S6K activity result in the assay on S6K (MKOC cells (Tsc2-/- mouse renal tumour)) and with S6K (PC-3 cells (PTEN-null prostate cancer cell line)) were “reduction of S6K activity” and “inhibited”, respectively. In addition, the phospho-4EBP1 phosphorylation status entry in the assay with 4EBP1 (target of mTOR) is recorded as “unaffected”. In addition, the “level of S6 kinase acetylation” value with S6 kinases is “significantly increased”.
